Read-outs that look alike come from different tables or passages of the source.
What was measured:
[1] = system: HTT; assay: HiBiT protein abundance assay, HTT HiBiT K562 cell line; assay type: cell-based, human; conditions: HiBiT K562 cell line, 24 hours, top dose 10 μM; read-out: Effect on protein abundance, HTT (IC50 category)
Procedure, shortened: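 Tagged-protein abundance measured by split-NanoBiT luminescence after lysis, following 24 h compound exposure (37° C; 10 μM top, 3-fold, 10 points; DMSO ≤0.25%) of HiBiT knock-in K562 cells. Percent response vs DMSO and unmodified-cell controls; 4-parameter logistic interpolation at 50% gave IC50.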

[2] = system: HTT mRNA; assay: RT-qPCR splicing assay, HTT canonical junction (CJ) and alternative junction (AJ) mRNA; assay type: cell-based, human; conditions: Homo sapiens; for AC50: increase in HTT alternative junction (AJ) mRNA, read-out: HTT AJ AC50
Procedure, shortened: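 Splicing switches were read by TaqMan RT-qPCR on lysates, quantifying exon-exon junctions of the canonical and alternative-exon isoforms. Lysates came from K562 (GAPDH/GUSB reference) or A673 (PPIA reference) cells exposed 24 h to compound in 11 threefold steps from 10 uM, with DMSO ≤0.25%.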

[3] = decrease in HTT canonical junction (CJ) mRNA, RT-qPCR, read-out: HTT CJ IC50
[4] = Table 5 panel, canonical junction qPCR, compound concentration having 50% response in CJ decrease, read-out: HTT IC50 (decrease in CJ mRNA levels)

Row | Structure (SMILES) | IC50 [1] | IC50 [2, 3] | AC50 ([2]; RT-qPCR) | IC50 [2, 4]
1 | Cc1cn2cc(-c3cc(F)c4c(=O)n([C@H]5CCNC[C@@H]5F)cnc4c3)cc(F)c2n1 (relative stereo) [Compound 341, 5-fluoro-7-(8-fluoro-2-methylimidazo[1,2-a]pyridin-6-yl)-3-(trans-3-fluoropiperidin-4-yl)quinazolin-4(3H)-one] | 1000 to 10000 nM | 100 to 1000 nM | 100 to 1000 nM | 100 to 1000 nM
2 | Cc1cn2cc(-c3cc(F)c4c(=O)n([C@H]5CCN[C@@H](C)C5)cnc4c3)cc(F)c2n1 (relative stereo) [Compound 343, cis-5-fluoro-7-(8-fluoro-2-methylimidazo[1,2-a]pyridin-6-yl)-3-(2-methylpiperidin-4-yl)quinazolin-4(3H)-one] | 100 to 1000 nM | 100 to 1000 nM | 100 to 1000 nM | 100 to 1000 nM
3 | Cc1cn2nc(-c3cc(F)c4c(=O)n([C@H]5CCNC6(CC6)C5)cnc4c3)cc(C)c2n1 (single isomer, unassigned) [Compound 357] | < 100 nM | < 100 nM | < 100 nM | < 100 nM
4 | CN1CCN(c2ccc3c(=O)n(-c4ccc5nn(C)cc5c4)cnc3c2)CC1 [Compound 152] | > 10000 nM | > 10000 nM | > 10000 nM | > 10000 nM
5 | Cn1cc2cc(-n3cnc4cc(N5CCNCC5)ccc4c3=O)ccc2n1 [Compound 153] | > 10000 nM | > 10000 nM | > 10000 nM | > 10000 nM
6 | Cc1cc(-c2ccc3c(=O)n(C4CCN(C)CC4)cnc3c2)cc2cn(C)nc12 [Compound 156] | 1000 to 10000 nM | 1000 to 10000 nM | 1000 to 10000 nM | 1000 to 10000 nM
7 | Cc1cc(-c2ccc3c(=O)n(C4CC(C)(C)NC(C)(C)C4)cnc3c2)cc2cn(C)nc12 [Compound 157] | 1000 to 10000 nM | > 10000 nM | > 10000 nM | > 10000 nM
8 | Cn1cc2cc(-n3cnc4cc(C5=CCNCC5)ccc4c3=O)ccc2n1 [Compound 158] | > 10000 nM | > 10000 nM | > 10000 nM | > 10000 nM
9 | CN1CC=C(c2ccc3c(=O)n(-c4ccc5nn(C)cc5c4)cnc3c2)CC1 [Compound 159] | > 10000 nM | > 10000 nM | > 10000 nM | > 10000 nM
10 | CCN1CCC(n2ncc3cc(-c4cc(C)c5nc(C)cn5n4)ccc3c2=O)CC1 [Compound 266] | < 100 nM | < 100 nM | < 100 nM | < 100 nM
11 | Cc1cn2nc(-c3ccc4c(c3)CCN(C3CCNC(C)(C)C3)C4=O)cc(C)c2n1 (stereo not shown) [Compound 267] | 100 to 1000 nM | 100 to 1000 nM | 1000 to 10000 nM | 1000 to 10000 nM
12 | Cc1cn2nc(-c3ccc4c(c3)CCN(C3CCN(C)CC3)C4=O)cc(C)c2n1 [Compound 268] | 1000 to 10000 nM | 1000 to 10000 nM | 1000 to 10000 nM | 1000 to 10000 nM
13 | Cc1cn2nc(-c3ccc4c(c3)CCN(C3CCNC3)C4=O)cc(C)c2n1 (stereo not shown) [Compound 269] | > 10000 nM | > 10000 nM | > 10000 nM | > 10000 nM
14 | CCN1CCC(N2CCc3cc(-c4cc(C)c5nc(C)cn5n4)ccc3C2=O)CC1 [Compound 270] | 1000 to 10000 nM | 1000 to 10000 nM | 1000 to 10000 nM | 1000 to 10000 nM
15 | Cc1cn2nc(-c3ccc4c(=O)n(C5CCN(C)C5)ncc4c3)cc(C)c2n1 (stereo not shown) [Compound 271] | 1000 to 10000 nM | 1000 to 10000 nM | 1000 to 10000 nM | 1000 to 10000 nM
16 | Cc1cn2nc(-c3ccc4c(=O)n([C@@H]5CCN[C@H](C)C5)ncc4c3)cc(C)c2n1 [Compound 272] | < 100 nM | 100 to 1000 nM | < 100 nM | < 100 nM
17 | Cc1cn2nc(-c3ccc4c(=O)n(C5CCNC6(CC6)C5)ncc4c3)cc(C)c2n1 (stereo not shown) [Compound 274] | < 100 nM | < 100 nM | < 100 nM | < 100 nM

Row | Structure (SMILES) | IC50 [1] | IC50 [2, 3] | AC50 ([2]; RT-qPCR) | IC50 [2, 4]
18 | Cc1cn2cc(-c3ccc4c(=O)n(C5CCNCC5)ccc4c3)cc(F)c2n1 [Compound 276] | < 100 nM | < 100 nM | < 100 nM | < 100 nM
19 | Cc1cn2nc(-c3ccc4c(=O)n([C@@H]5CCN(C)[C@H](C)C5)ncc4c3)cc(C)c2n1 [Compound 277] | 100 to 1000 nM | 100 to 1000 nM | 100 to 1000 nM | 100 to 1000 nM
20 | Cc1cn2nc(-c3ccc4c(=O)n([C@H]5CCN(C)[C@H](C)C5)ncc4c3)cc(C)c2n1 [Compound 278] | < 100 nM | < 100 nM | < 100 nM | < 100 nM
21 | Cc1cn2nc(-c3ccc4c(=O)n(C5CCNC(C)(C)C5)ncc4c3)cc(C)c2n1 (stereo not shown) [Compound 279] | < 100 nM | 100 to 1000 nM | 100 to 1000 nM | 100 to 1000 nM
22 | Cc1cn2nc(-c3ccc4c(=O)n([C@@H]5C[C@H]6CC[C@@H](C5)N6)ncc4c3)cc(C)c2n1 [Compound 280] | 100 to 1000 nM | 100 to 1000 nM | 100 to 1000 nM | 100 to 1000 nM
23 | Cc1cn2nc(-c3ccc4c(c3)CCN([C@@H]3CCN[C@H](C)C3)C4=O)cc(C)c2n1 [Compound 281] | 1000 to 10000 nM | 1000 to 10000 nM | 1000 to 10000 nM | 1000 to 10000 nM
24 | Cc1cn2nc(-c3ccc4c(c3)CCN(C3CCN(C)C3)C4=O)cc(C)c2n1 (stereo not shown) [Compound 282] | > 10000 nM | > 10000 nM | > 10000 nM | > 10000 nM
25 | Cc1cn2nc(-c3ccc4c(=O)n(C5CCCNCC5)ncc4c3)cc(C)c2n1 (stereo not shown) [Compound 283] | < 100 nM | 100 to 1000 nM | 100 to 1000 nM | 100 to 1000 nM
26 | O=c1c2ccc(-c3cn[nH]c3)cc2ncn1C1CCNCC1 [Compound 284] | > 10000 nM | > 10000 nM | > 10000 nM | > 10000 nM
27 | Cc1nc2c(F)cc(-c3ccc4c(=O)n(C5CCNCC5)cnc4c3)cc2s1 [Compound 285] | 1000 to 10000 nM | > 10000 nM | 1000 to 10000 nM | 1000 to 10000 nM
28 | Cc1cn2cc(-c3ccc4c(=O)n(C5CCNCC5)cnc4c3)nc2c(C)n1 [Compound 286] | 1000 to 10000 nM | 1000 to 10000 nM | 1000 to 10000 nM | 1000 to 10000 nM
29 | Cc1cn2nc(-c3ccc4c(=O)n(C5CCNCC5)cnc4c3)nc2c(C)n1 [Compound 287, 7-{6,8-dimethyl-[1,2,4]triazolo[1,5-a]pyrazin-2-yl}-3-(piperidin-4-yl)quinazolin-4-one] | 100 to 1000 nM | 100 to 1000 nM | 100 to 1000 nM | 100 to 1000 nM
30 | Cc1cn2nc(-c3ccc4c(=O)n(C5CCN(C)CC5)cnc4c3)nc2c(C)n1 [Compound 288, 7-{6,8-dimethyl-[1,2,4]triazolo[1,5-a]pyrazin-2-yl}1-3-(1-methylpiperidin-4-yl)quinazolin-4-one] | 1000 to 10000 nM | 1000 to 10000 nM | 1000 to 10000 nM | 1000 to 10000 nM
31 | Cc1cn2nc(-c3ccc4c(=O)n(C5CCN(C)CC5)cnc4c3F)cc(C)c2n1 [Compound 290] | 100 to 1000 nM | 100 to 1000 nM | 100 to 1000 nM | 100 to 1000 nM
32 | Cc1cn2cc(-c3ccc4c(=O)n(C5CCNCC5)cnc4c3)cc(Cl)c2n1 [Compound 291] | 100 to 1000 nM | 100 to 1000 nM | 100 to 1000 nM | 100 to 1000 nM
33 | Cc1cn2cc(-c3ccc4c(=O)n(C5CCNCC5)cnc4c3)cc(C)c2n1 [Compound 292] | 100 to 1000 nM | 100 to 1000 nM | 100 to 1000 nM | 100 to 1000 nM
34 | Cc1cn2cc(-c3ccc4c(=O)n([C@@H]5CCN[C@@H](C)C5)cnc4c3)cc(F)c2n1 [Compound 293] | 100 to 1000 nM | 1000 to 10000 nM | 100 to 1000 nM | 100 to 1000 nM
